Results published in patent US10196345B2, “MAO-B selective inhibitor compounds, pharmaceutical compositions thereof and uses thereof” (The University of British Columbia, priority 2013, dated 2019).
Several values for one entry are separate records, joined by “and”; a condition that tells them apart may be missing. Equal entries are not always repeated. Entries after “also recorded” stand apart in the source; their conditions may differ. Where two headings read alike, the source gives them in different places.

Experiments:
recombinant human MAO-A = biological target: T1, recombinant human MAO-A (Homo sapiens, UniProt P21397); test: Cell-free Fluorescent Monoamine Oxidase A&B Detection Assay, MAO-A; type: biochemical
T1 sequence (P21397 1-527): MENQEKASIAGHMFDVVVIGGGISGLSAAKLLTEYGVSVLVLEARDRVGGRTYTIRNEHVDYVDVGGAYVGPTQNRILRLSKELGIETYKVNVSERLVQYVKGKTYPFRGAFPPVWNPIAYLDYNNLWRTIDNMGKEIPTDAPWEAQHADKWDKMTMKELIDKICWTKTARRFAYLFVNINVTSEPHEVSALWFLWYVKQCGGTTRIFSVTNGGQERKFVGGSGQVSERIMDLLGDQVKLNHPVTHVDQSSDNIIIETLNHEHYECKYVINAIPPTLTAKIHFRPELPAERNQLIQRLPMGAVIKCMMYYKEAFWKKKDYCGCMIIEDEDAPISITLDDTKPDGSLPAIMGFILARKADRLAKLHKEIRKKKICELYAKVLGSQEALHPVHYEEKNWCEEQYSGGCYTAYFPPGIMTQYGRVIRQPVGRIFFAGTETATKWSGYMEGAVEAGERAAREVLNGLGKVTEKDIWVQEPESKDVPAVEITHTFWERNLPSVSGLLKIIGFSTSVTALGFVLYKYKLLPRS
Method: (§1) The assay was repeated to confirm data.
(§2) MAO B specific inhibitory activity and selectivity over MAO A is assayed using a commercial kit [Fluoro MAO A and B detection kit (Cell Technology Inc™)]. This kit uses a non-fluorescent detection reagent to measure H2O2 released from the conversion of an MAO A and MAO B substrate specific to its aldehyde. Furthermore, H2O2 oxidizes the detection reagent in a 1:1 stoichiometry to produce a fluorescent product (resorufin). […] This information is then provided to the medicinal chemists to help direct synthesis of subsequent iterations.

[1] = in vitro BBB permeability in MDCK-WT cells; details: dog, MDCK
Source text: (§3) Wildtype Madin-Darby canine cells (MDCK-WT) were used to predict CNS permeability of compounds PS-RG0103, PS-RG0216, PS-RG0245 and PS-AD0191. […] J Allergy Clin Immunol. 1990; 86(6 pt 2): p. 1025-8.
(§4) Novel MAO B inhibitors selected based on the above screening program will be screened using an in vitro model of blood brain barrier (BBB). Madin-Darby canine kidney (MDCK-WT) and MDCK cells transfected with the human MDR1 gene (MDCK-MDR1) are well established in vitro models used to predict a compound's ability to permeate the blood brain barrier (BBB). […] Apparent permeability (Papp), Efflux ratio (Papp B-A/Papp A-B), as well as the Net flux ratio (Efflux ratioMDCK-MDR1/Efflux ratioMDCK-WT) can be calculated to identify compound BBB permeability and identify compounds that are substrates of P-gp.

[2] = test system: Porcine ligament epithelial (PLE) cells; test: TEER, LPS-induced barrier loss, PLE cells; type: cell-based; details: Transwell, LPS challenge at 72 hours
Method: (§5) In each case, TEER was measured every 48 hours after treatment. Statistically significant differences were identified.
(§6) Transepithelial Resistance (TER) is a common method to screen for barrier integrity. […] For select compounds barrier integrity and protection is also measured using tracer studies because TER accuracy in examining TJ integrity has recently come into question (Van Itallie et al., 2008). Fluorescein isothiocyanate conjugated 10 kD dextran (Invitrogen™) will be added to the apical Transwell™ compartment, fixed, and examined for dextran permeation (Umeda et al., 2006). We expect control and deprenyl-treated cells with an intact barrier to maintain the tracer at the apical membrane region, whereas the breached monolayers will show tracer permeation between the cells.

[3] = test system: rat intestinal epithelial (IEC-6) cells; test: TEER, LPS-induced barrier loss, IEC-6 cells; type: cell-based; details: Transwell, LPS challenge at 72 hours
Method: as §5, §6

[4] = test system: Madin Darby canine kidney (MDCK-I) cells; test: TEER in MDCK-I cells; type: cell-based; details: for TEER, LPS+deprenyl vs control: MDCK-I cells, Transwell, LPS range, 40 μM deprenyl; for 144-hour barrier (TEER) vs control: MDCK-I, treated at 72 hours; for effect on TEER (MAO A, B, AB inhibitors): no concentration given
Method: In each case, TEER was measured every 48 hours after treatment.
Transwell cultures were treated at 72 hours (T) post-cell plating.
Transepithelial Resistance (TER) is a common method to screen for barrier integrity. […] Fluorescein isothiocyanate conjugated 10 kD dextran (Invitrogen™) will be added to the apical Transwell™ compartment, fixed, and examined for dextran permeation (Umeda et al., 2006).
Amphiregulin (AR) is an EGFR binding ligand and may play a pivotal role in the previously described signaling axis (see FIGS. 15-17). […] (ii) GI [intestinal epithelial cell (IEC)] and (iii) classical [Madin-Darby canine kidney (MDCK-1)].

[5] = test system: IL-8 protein expression in Caco-2 cells; test: IL-8 protein expression in LPS- and TNFα-treated Caco-2 cells; type: cell-based, human; details: Caco-2, 1 μg/mL LPS or 50 ng/mL TNFα + 20 μM compound, 4, 12 or 24 h
Method: Caco-2 cells were seeded at 83300 cells/cm^2 on a polystyrene 96-well plate in DMEM medium (#10313-021, Gibco™) containing 10% FBS. On day 5 after seeding, wells were replaced with fresh media containing 2.5% FBS. […] Supernatants of the treated cells were analyzed for pro- and anti-inflammatory cytokine proteins using the Human Proinflammatory 7-Plex Ultra-Sensitive Kit™ (K15008C, MSD™) measured by the Sector Imager 2400A (MSD™). Left panel: Absolute concentrations of IL-8 protein in supernatants of cells treated with control (media only), 1 μg/mL LPS or 50 ng/mL TNFα. […] Values were determined by subtracting supernatant cytokine concentrations of control from supernatant cytokine concentrations of treated cells. Results are expressed as mean±standard deviation (n=3).

[6] = test system: human intestinal microvascular endothelial cells (HIMEC); test: IL-8, IL-6 and TNFα protein expression in LPS-treated HIMEC; type: cell-based; details: 1000 ng/mL LPS + 10 μM compound, 1 or 3 hrs
Method: Human microvascular endothelial cells were seeded at 37500 cells/cm^2 on a fibronectin-coated polystyrene 96-well plate in MCDB 131 medium (#10372-019, Gibco™) containing 20% FBS. On day 2 after seeding, wells were replaced with fresh media containing 2.5% FBS. […] Supernatants of the treated cells were analyzed for pro- and anti-inflammatory cytokine proteins using the Human Proinflammatory 7-Plex Ultra-Sensitive Kit (K15008C, MSD) measured by the Sector Imager 2400A (MSD). Left panel: Absolute concentrations of IL-8, IL-6 and TNFα protein in supernatants of cells treated with control (media only) or increasing concentrations of LPS. Right panel: Absolute IL-8, IL-6 or TNFα concentrations induced or attenuated by 1000 ng/mL LPS±the novel MAO B inhibitors. Values were determined by subtracting supernatant cytokine concentrations of control from supernatant cytokine concentrations of treated cells. Results are expressed as mean±standard deviation (n=3). Statistical significance was determined using a one-way ANOVA and Tukey post-hoc test in SPSS (IBM) comparing control and LPS (left panel) or LPS and novel MAO B inhibitors (right panel). *p<0.05, **p<0.001

[7] = test system: DSS induced colitis in C57BL/6 mice; test: 3% DSS induced colitis, claudin-3 localization; type: in vivo; details: 3% DSS in drinking water, day 7, C57BL/6 mice
Source text: FIGS. 21A and B show a 3% DSS induced colitis and protects epithelial cell-cell claudin-3 localization. […] (A). […] (B). […] Increased cell infiltrate is evident in the DSS-treated animals by the DAPI (blue) staining.

C. rodentium infections = test: seven-day C. rodentium infection model; type: in vivo
[8] = mouse hepatocyte stability assay; details: after 60 minutes at room temperature
[9] = stability assay in mouse liver microsomes; details: after 60 minutes at room temperature
[10] = stability assay in human liver microsomes; details: after 60 minutes at room temperature
recombinant human MAO-B = biological target: T2, recombinant human MAO-B (Homo sapiens, UniProt P27338); test: Cell-free Fluorescent Monoamine Oxidase A&B Detection Assay, MAO-B; type: biochemical
T2 sequence (P27338 1-520): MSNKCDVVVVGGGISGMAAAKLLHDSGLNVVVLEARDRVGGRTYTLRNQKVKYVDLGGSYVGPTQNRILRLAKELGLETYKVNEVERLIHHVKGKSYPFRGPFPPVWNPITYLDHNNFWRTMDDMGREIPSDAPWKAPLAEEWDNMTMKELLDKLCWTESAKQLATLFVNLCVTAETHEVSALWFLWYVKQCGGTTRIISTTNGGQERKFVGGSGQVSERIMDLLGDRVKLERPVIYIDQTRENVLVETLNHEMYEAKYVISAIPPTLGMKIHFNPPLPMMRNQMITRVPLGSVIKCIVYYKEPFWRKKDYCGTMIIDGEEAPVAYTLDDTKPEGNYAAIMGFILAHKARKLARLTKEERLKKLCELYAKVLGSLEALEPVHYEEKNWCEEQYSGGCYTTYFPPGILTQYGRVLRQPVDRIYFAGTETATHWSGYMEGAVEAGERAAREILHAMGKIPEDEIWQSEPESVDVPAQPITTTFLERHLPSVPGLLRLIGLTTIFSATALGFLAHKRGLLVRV
Method: as §1, §2

[11] = test system: Wildtype Madin-Darby canine cells (MDCK-WT); test: in vitro BBB permeability in MDCK-WT cells; details: MDCK-WT; one-way ANOVA, Dunnett's test
Source text: as §3, §4

[12] = hepatocytes, 1 h
AR protein secretion = test: amphiregulin (AR) protein secretion, MDCK-I cells; type: cell-based, canine; details: no concentration given
[13] = test system: rat periodontal disease model; details: cited from earlier work
[14] = obese and non-obese rats; cited from earlier work
[15] = test system: MAO activity in adipocytes; details: cited from earlier work
[16] = seven-day C. rodentium infection, preliminary

Structure (SMILES): C#CCN(C)[C@H](C)Cc1ccccc1 [Deprenyl]
- IC90 (recombinant human MAO-A; read-out: IC90 MAO-A (μM)): 9.38 µM
- Papp [1]: 44 ± 2.5 ×10⁻⁶ cm/s
- TEER, LPS+deprenyl vs control [2]: rescues LPS reduction of TEER
- TEER, LPS+deprenyl vs control ([2]; listed as deprenyl): significantly induced TEER above control
- TEER, LPS+deprenyl vs control [3]: rescues LPS reduction of TEER
- TEER, LPS+deprenyl vs control ([3]; listed as deprenyl): significantly induced TEER above control
- TEER, LPS+deprenyl vs control [4]: rescues LPS reduction of TEER
- TEER, LPS+deprenyl vs control ([4]; listed as deprenyl): significantly induced TEER above control
- TEER, co-treatment with H2O2 ([4]; MDCK-I on Transwell membranes, H2O2): increased TEER significantly above the control
- 144-hour barrier (TEER) vs control ([4]; 5 μm inhibitor): increased over control
- 144-hour barrier (TEER) vs control ([4]; 40 μm inhibitor): increased over control
- effect on TEER (MAO A, B, AB inhibitors) [4]: increased TEER
- IL-8 protein expression [5]: attenuation of IL-8 protein expression
- IL-8, IL-6 and TNFα protein expression [6]: attenuation
- claudin-3 localization [7]: better localized to epithelial cell-cell contacts
- bacterial growth rates (C. rodentium infections; C. rodentium): did not influence bacterial growth rates
- TJ protein localization at the cell periphery (C. rodentium infections; [16]): intact
- hyperplastic phenotype (C. rodentium infections; [16]): not apparent
- compound remaining, mouse hepatocyte stability [8]: less than 2.5%
- compound remaining in mouse microsome [9]: less than 2.5%
- compound remaining in human microsome [10]: 15%

Structure (SMILES): C[C@H](Cc1ccc(OCc2ccc(Br)c(Cl)c2)cc1)N(C)CC(=O)O.Cl [PS-RG0216, (R)—N-(1-(4-((4-bromo-3-chlorobenzyl)oxy)phenyl)propan-2-yl)-N-methylglycine hydrochloride]
- IC50 MAO-A (μM) (recombinant human MAO-A; cell-free, recombinant human MAO-A, hydrochloride): no activity on MAO-A; also recorded: Does not
- IC90 (recombinant human MAO-B): 1020 nM
- IC50 (recombinant human MAO-B; read-out: IC50 MAO-B): 200 nM and 203 nM
- Papp [1]: 1.2 ± 0.1 ×10⁻⁶ cm/s
- permeability compared with cetirizine [11]: not different from cetirizine
- IL-8 protein expression [5]: attenuation of IL-8 protein expression
- compound remaining, mouse hepatocyte stability [12]: 100%
- compound remaining in mouse microsome [9]: 74%
- compound remaining in human microsome [10]: 91%

Structure (SMILES): NNCCc1ccccc1 [phenelzine]
- 144-hour barrier (TEER) vs control ([4]; 5 μm inhibitor): increased over control
- 144-hour barrier (TEER) vs control ([4]; 40 μm inhibitor): increased over control
- effect on TEER (MAO A, B, AB inhibitors) [4]: increased TEER
- effect on AR expression/secretion (MAO A, B, AB inhibitors) (AR protein secretion): reduced AR expression
- histological indicators of periodontal disease ([13]; co-applied topically with LPS, rat): histological indicators of periodontal disease were reduced
- local epithelial cell proliferation and migration, alveolar bone loss, PMN infiltration and systemic H2O2 ([13]; rat periodontal disease model, daily LPS): reduced
- MAO activity [14]: inhibited MAO activity
- body weight gain [14]: diminished body weight gain
- intra-abdominal adipose tissue [14]: reduced intra-abdominal adipose tissue
- MAO activity in adipocytes [15]: inhibit MAO activity in adipocytes
